Assay results from publication PMC5338256, “D-form KLKLLLLLKLK-NH2 peptide exerts higher antimicrobial properties than its L-form counterpart via an association with bacterial cell wall components” (Scientific Reports, 2017).
Converted amounts (≈) assume the structure as drawn. Non-standard residues stand in square brackets, D forms with d. Residues, ends and D or L forms follow the SMILES beside them.

Key:
S. aureus [1] = test: Inhibition of antimicrobial activity by bacterial cell wall components; assay type: cell-based, Staphylococcus aureus; settings: D-form 1.9 μg/ml, L-form 7.5 μg/ml, 10 min
Procedure: Bacteria and C. albicans were suspended in growth medium. Peptides suspended in dimethyl sulfoxide were serially diluted in 10 mM phosphate buffer (pH 6.0) containing 130 mM sodium chloride, 0.2% bovine serum albumin as described previously. In order to examine the effects of bovine serum albumin on the assay, 10 mM phosphate buffer (pH 6.0) containing 130 mM sodium chloride, was used for the dilution of peptides. Peptide solution (500 μl) was added to 500 μl of bacteria suspensions and then the mixture was incubated at 37 °C for 10 min. In order to examine the effects of culture medium components on the assay, bacteria suspension was prepared with 10 mM phosphate buffer (pH 6.0) containing 130 mM sodium chloride. Alternatively, 500 μl of peptide solution was added to 500 μl of C. albicans suspensions and the mixture was incubated at room temperature for 10 min. The inhibitory effects of the bacterial components were analyzed by incubating 450 μl of S. aureus suspension with 500 μl of peptide solution plus 50 μl of inhibitor samples at 37 °C for 10 min. Then, the peptide/bacteria suspensions were diluted and plated onto LB agar, LB agar containing 0.5% glucose, or YM agar. After cultivation of the plates, colony forming units (CFU) in the peptide/bacteria suspension were calculated based on the average of triplicate plates.
Peptidoglycan (120 μg) prepared from S. aureus was added to 1 mg/ml of lysozyme in phosphate buffered saline (150 μl)[33]. Peptidoglycan without lysozyme and lysozyme without peptidoglycan were also prepared as controls. Samples were incubated overnight at 37 °C, and then incubated at 100 °C for 15 min to inactivate lysozyme. For heat-inactivation of peptidoglycan, 600 μg of peptidoglycan suspended in water (300 μl) was incubated at 100 °C for 15 min. The samples were sonicated for 10 sec at setting 1 using a Branson sonifier model S-150D. These samples were used as inhibitor samples for antimicrobial activity assays.

S. aureus [2] = assay type: cell-based, Staphylococcus aureus (NBRC100910)
Procedure: (§1) S. aureus (NBRC100910), E. coli W3110 (NBRC12713), E. hirae (NBRC3181), C. albicans (NBRC1385), and S. Typhimurium 14028s (ATCC14028)[2] were used in this study. S. aureus, E. coli, and S. Typhimurium were grown at 37 °C with aeration in Muller-Hinton II medium (BD Biosciences). E. hirae was grown at 37 °C in LB medium (Nacalai Tesque, Inc.) containing 0.5% glucose (w/v). C. albicans was grown at room temperature with aeration in YM medium (BD Biosciences). All experiments were conducted using bacterial cells and C. albicans in the logarithmic-phase of growth.
(§2) Bacterial suspensions in Muller-Hinton II medium were adjusted to an optical density of 550 nm (OD550) = 0.0011. C. albicans suspensions in YM medium were adjusted to OD650 = 0.033. Peptides were serially diluted in 10 mM phosphate buffer (pH 6.0) containing 130 mM sodium chloride, 0.2% bovine serum albumin, and 2.56% dimethyl sulfoxide. The peptide solution (100 μl) was mixed with 100 μl of bacteria or C. albicans suspensions. Bacterial cultures were incubated for one day at 37 °C. C. albicans cultures were incubated for two days at room temperature. Cell growth was monitored optically and the MIC was determined.

E. coli = test: Assay for antimicrobial activity (10 min exposure, CFU); assay type: cell-based, Escherichia coli W3110 (NBRC12713); settings: 10 min at 37 °C, triplicate plates
Procedure: as §1
Bacteria and C. albicans were suspended in growth medium. Peptides suspended in dimethyl sulfoxide were serially diluted in 10 mM phosphate buffer (pH 6.0) containing 130 mM sodium chloride, 0.2% bovine serum albumin as described previously. In order to examine the effects of bovine serum albumin on the assay, 10 mM phosphate buffer (pH 6.0) containing 130 mM sodium chloride, was used for the dilution of peptides. […] The inhibitory effects of the bacterial components were analyzed by incubating 450 μl of S. aureus suspension with 500 μl of peptide solution plus 50 μl of inhibitor samples at 37 °C for 10 min. […] After cultivation of the plates, colony forming units (CFU) in the peptide/bacteria suspension were calculated based on the average of triplicate plates.

S. aureus [3] = test: Assay for membrane permeability (ethidium influx); assay type: cell-based, Staphylococcus aureus; settings: 20 μg/ml peptide, fluorescence for 180 sec, 10 mM phosphate buffer pH 6.0, 130 mM NaCl, 0.2% BSA
Procedure: To examine membrane permeability, ethidium influx rates were examined as previously described. S. aureus suspension cultures were adjusted to an OD600 of 0.4 in 10 mM phosphate buffer (pH 6.0) containing 130 mM sodium chloride and 0.2% bovine serum albumin. Then, peptide in dimethyl sulfoxide (8 μl) or dimethyl sulfoxide alone (8 μl) was added to 2 ml of S. aureus suspensions. At 30 sec after the addition of peptide, ethidium bromide was added to a final concentration of 5 μg/ml, and fluorescence of the ethidium-nucleic acid complex was monitored using a RF-5300PC spectrofluorometer (Shimadzu). Excitation and emission wavelengths were 545 nm with 5 nm slits and 600 nm with 10 nm slits, respectively.

C. albicans = assay type: cell-based, Candida albicans (NBRC1385)
Procedure: as §1, §2

Structure (SMILES): CC(C)C[C@@H](NC(=O)[C@H](N)CCCCN)C(=O)N[C@H](CCCCN)C(=O)N[C@H](CC(C)C)C(=O)N[C@H](CC(C)C)C(=O)N[C@H](CC(C)C)C(=O)N[C@H](CC(C)C)C(=O)N[C@H](CC(C)C)C(=O)N[C@H](CCCCN)C(=O)N[C@H](CC(C)C)C(=O)N[C@H](CCCCN)C(N)=O [D-form KLKLLLLLKLK-NH2] (H-[dK][dL][dK][dL][dL][dL][dL][dL][dK][dL][dK]-NH2; N-terminus assumed)
- inhibition of the antimicrobial effect by S. aureus peptidoglycan (S. aureus [1]; 40 μg/ml S. aureus peptidoglycan): almost inhibited
- inhibition of the antimicrobial activity by lipopolysaccharide from E. coli (S. aureus [1]): preferentially inhibited
- inhibition of the antimicrobial activity by peptidoglycan from E. coli (S. aureus [1]): weak inhibitory effect
- inhibition of the antimicrobial activity by synthetic E. coli lipid A (S. aureus [1]): preferentially inhibited
- inhibition of the antimicrobial effect by lipoteichoic acid from S. aureus (S. aureus [1]): inhibited the antimicrobial effect of both D-form and L-form peptides similarly
- fold by which the MIC of the D-form is lower than that of the L-form (S. aureus [2]; S. aureus): 16 fold
- MIC (S. aureus [2]; pH 6): 1 µg/mL (≈ 0.757 µM)
- antimicrobial activity (CFU), D-form compared with L-form (E. coli): higher antimicrobial activity
- ethidium bromide influx rate (S. aureus [3]): higher
- MIC (C. albicans): 32 µg/mL (≈ 24.2 µM)
